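Interpolation was linear, between the two tested concentrations surrounding the appropriate level; five concentrations were tested over 48 hours in 96-well plates. GI50: concentration for 50% inhibition of growth.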 Calls of active or inactive are those of the source. No stated cut-off is given here; in the data, active = GI50 up to about 1.1 µM and inactive = higher.
Columns and labels:
Experiment in all cases: DTP human tumour cell line panel, 48 h
[1] = system: A549
[2] = system: COLO 205
[3] = system: HCC 2998
[4] = system: HL-60
[5] = system: HOP-62
[6] = system: KM12
[7] = system: M14
[8] = system: MDA-N
[9] = system: Malme-3M
[10] = system: NCI-H522
[11] = system: OVCAR-3
[12] = system: OVCAR-5
[13] = system: OVCAR-8
[14] = system: RPMI-8226
[15] = system: SK-MEL-28
[16] = system: SK-MEL-2
[17] = system: SK-MEL-5
[18] = system: TK-10
[19] = system: U-251
[20] = system: UO-31

Cc1cc(N(CCOS(C)(=O)=O)CCOS(C)(=O)=O)ccc1/C=N/c1ccc(-c2nc(Cc3ccccc3)sc2C)cc1
GI50 [1]: 1.33 µM (inactive) | GI50 [2]: 1.43 µM (inactive) | GI50 [3]: 3.77 µM (inactive) | GI50 [4]: 1.17 µM (inactive) | GI50 [5]: 1.75 µM (inactive) | GI50 [6]: 14.2 µM (inactive) | GI50 [7]: 4.86 µM (inactive) | GI50 [8]: 11.8 µM (inactive) | GI50 [9]: 11.4 µM (inactive) | GI50 [10]: 0.233 µM (active) | GI50 [11]: 2.87 µM (inactive) | GI50 [12]: 11.2 µM (inactive) | GI50 [13]: 7.53 µM (inactive) | GI50 [14]: 3.82 µM (inactive) | GI50 [15]: 14.2 µM (inactive) | GI50 [16]: 15.3 µM (inactive) | GI50 [17]: 9.68 µM (inactive) | GI50 [18]: 4.6 µM (inactive) | GI50 [19]: 6.64 µM (inactive) | GI50 [20]: 3.71 µM (inactive)

C=CCn1cnc2c(O)nc(Nc3ccccc3)nc21
GI50 [1]: > 100 µM (inactive) | GI50 [2]: > 100 µM (inactive) | GI50 [3]: > 100 µM (inactive) | GI50 [4]: > 100 µM (inactive) | GI50 [5]: > 100 µM (inactive) | GI50 [6]: > 100 µM (inactive) | GI50 [7]: > 100 µM (inactive) | GI50 [8]: > 100 µM (inactive) | GI50 [9]: > 100 µM (inactive) | GI50 [10]: > 100 µM (inactive) | GI50 [11]: > 100 µM (inactive) | GI50 [12]: > 100 µM (inactive) | GI50 [13]: > 100 µM (inactive) | GI50 [14]: > 100 µM (inactive) | GI50 [15]: > 100 µM (inactive) | GI50 [16]: > 100 µM (inactive) | GI50 [17]: > 100 µM (inactive) | GI50 [18]: > 100 µM (inactive) | GI50 [19]: > 100 µM (inactive) | GI50 [20]: 50.5 µM (inactive)

CO/C(N)=C(C#N)/N=C/c1ccco1
GI50 [1]: > 100 µM (inactive) | GI50 [2]: > 100 µM (inactive) | GI50 [3]: > 100 µM (inactive) | GI50 [4]: > 100 µM (inactive) | GI50 [5]: > 100 µM (inactive) | GI50 [6]: > 100 µM (inactive) | GI50 [7]: > 100 µM (inactive) | GI50 [8]: > 100 µM (inactive) | GI50 [9]: > 100 µM (inactive) | GI50 [10]: > 100 µM (inactive) | GI50 [11]: > 100 µM (inactive) | GI50 [12]: > 100 µM (inactive) | GI50 [13]: > 100 µM (inactive) | GI50 [14]: > 100 µM (inactive) | GI50 [15]: > 100 µM (inactive) | GI50 [16]: > 100 µM (inactive) | GI50 [17]: > 100 µM (inactive) | GI50 [18]: > 100 µM (inactive) | GI50 [19]: > 100 µM (inactive) | GI50 [20]: > 100 µM (inactive)

COc1cccc2c1C(=O)OC2c1cccc2ccccc12 (stereo not given)
GI50 [1]: > 100 µM (inactive) | GI50 [2]: > 100 µM (inactive) | GI50 [3]: > 100 µM (inactive) | GI50 [4]: > 46.6 µM (inactive) | GI50 [5]: 36 µM (inactive) | GI50 [6]: > 100 µM (inactive) | GI50 [7]: > 100 µM (inactive) | GI50 [8]: > 100 µM (inactive) | GI50 [9]: > 100 µM (inactive) | GI50 [10]: > 100 µM (inactive) | GI50 [11]: 74.8 µM (inactive) | GI50 [12]: > 100 µM (inactive) | GI50 [13]: 56.4 µM (inactive) | GI50 [14]: > 100 µM (inactive) | GI50 [15]: > 100 µM (inactive) | GI50 [16]: > 100 µM (inactive) | GI50 [17]: > 100 µM (inactive) | GI50 [18]: > 73.3 µM (inactive) | GI50 [19]: 67.5 µM (inactive) | GI50 [20]: > 100 µM (inactive)

O=c1ccc(=O)n(-c2ccccc2)[nH]1
GI50 [1]: > 100 µM (inactive) | GI50 [2]: > 100 µM (inactive) | GI50 [3]: > 100 µM (inactive) | GI50 [4]: > 100 µM (inactive) | GI50 [5]: > 100 µM (inactive) | GI50 [6]: > 100 µM (inactive) | GI50 [7]: > 100 µM (inactive) | GI50 [8]: > 100 µM (inactive) | GI50 [9]: > 100 µM (inactive) | GI50 [10]: > 100 µM (inactive) | GI50 [11]: > 100 µM (inactive) | GI50 [12]: > 100 µM (inactive) | GI50 [13]: > 100 µM (inactive) | GI50 [14]: > 100 µM (inactive) | GI50 [15]: > 100 µM (inactive) | GI50 [16]: > 100 µM (inactive) | GI50 [17]: > 100 µM (inactive) | GI50 [18]: > 100 µM (inactive) | GI50 [19]: > 100 µM (inactive) | GI50 [20]: > 100 µM (inactive)

C=C(C)C12OC3(c4ccccc4)OC1C1C4OC4(CO)C(O)C4(O)C(=O)C(C)=CC4C1(O3)C(C)C2OC(=O)/C=C/C=C/c1ccccc1 (stereo not given)
GI50 [1]: < 0.0005 µM (active) | GI50 [2]: < 0.0005 µM (active) | GI50 [3]: < 0.0005 µM (active) | GI50 [4]: < 0.0005 µM (active) | GI50 [5]: 0.551 µM (active) | GI50 [6]: 0.156 µM (active) | GI50 [7]: 0.0853 µM (active) | GI50 [8]: < 0.0005 µM (active) | GI50 [9]: 0.474 µM (active) | GI50 [10]: 0.267 µM (active) | GI50 [11]: 0.109 µM (active) | GI50 [12]: 0.0802 µM (active) | GI50 [13]: 0.357 µM (active) | GI50 [14]: 0.107 µM (active) | GI50 [15]: 0.33 µM (active) | GI50 [16]: 0.337 µM (active) | GI50 [17]: 0.0716 µM (active) | GI50 [18]: < 0.0005 µM (active) | GI50 [19]: 0.197 µM (active) | GI50 [20]: 0.0702 µM (active)

O=C(O)c1ccc2c(c1)CC1(C2)Cc2cc3c(cc2C1=O)CCC3 (stereo not given)
GI50 [1]: 69 µM (inactive) | GI50 [2]: > 100 µM (inactive) | GI50 [3]: > 100 µM (inactive) | GI50 [4]: > 100 µM (inactive) | GI50 [5]: > 100 µM (inactive) | GI50 [6]: > 100 µM (inactive) | GI50 [7]: > 100 µM (inactive) | GI50 [8]: > 100 µM (inactive) | GI50 [9]: > 100 µM (inactive) | GI50 [10]: > 100 µM (inactive) | GI50 [11]: > 100 µM (inactive) | GI50 [12]: > 100 µM (inactive) | GI50 [13]: 97.9 µM (inactive) | GI50 [14]: > 100 µM (inactive) | GI50 [15]: > 100 µM (inactive) | GI50 [16]: > 100 µM (inactive) | GI50 [17]: 93.8 µM (inactive) | GI50 [18]: > 100 µM (inactive) | GI50 [19]: > 100 µM (inactive) | GI50 [20]: 85.1 µM (inactive)
